Data taken from patent publication US11045448B2, “Piperidines as covalent menin inhibitors” (THE REGENTS OF THE UNIVERSITY OF MICHIGAN, priority 2017, dated 2021).
Like-named read-outs stand apart in the source and are kept apart here.

Experiments:
menin protein [1] = molecular target: T1, menin protein (Homo sapiens (Human), UniProt O00255); test: Fluorescence polarization (FP) competitive binding assay, menin binding affinity; conditions: menin protein 4 nM, probe 2 nM, room temperature 30 minutes
T1 sequence (O00255 whole entry): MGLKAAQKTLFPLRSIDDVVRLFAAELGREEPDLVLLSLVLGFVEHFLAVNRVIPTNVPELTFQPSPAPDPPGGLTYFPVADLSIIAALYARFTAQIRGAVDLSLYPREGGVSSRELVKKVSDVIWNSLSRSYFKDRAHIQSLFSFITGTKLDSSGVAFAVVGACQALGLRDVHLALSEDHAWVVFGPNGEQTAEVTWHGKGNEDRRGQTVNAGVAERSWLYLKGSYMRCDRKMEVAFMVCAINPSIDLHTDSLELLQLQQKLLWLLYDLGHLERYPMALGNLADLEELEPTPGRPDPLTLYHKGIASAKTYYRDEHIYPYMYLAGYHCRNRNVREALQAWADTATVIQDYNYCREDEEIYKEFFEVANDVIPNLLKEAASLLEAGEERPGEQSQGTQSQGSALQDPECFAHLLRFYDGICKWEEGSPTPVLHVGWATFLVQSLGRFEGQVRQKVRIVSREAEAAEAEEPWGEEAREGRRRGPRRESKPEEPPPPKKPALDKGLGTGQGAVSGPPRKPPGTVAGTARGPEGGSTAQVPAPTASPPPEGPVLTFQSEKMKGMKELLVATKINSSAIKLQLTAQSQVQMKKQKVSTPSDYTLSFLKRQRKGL
Method: A fluorescence polarization (FP) competitive binding assay was used to determine the binding affinities of representative menin inhibitors. A FAM labeled fluorescent probe was designed and synthesized based on a MLL1 peptide (FAM-MM2). Equilibrium dissociation constant (Kd) value of FAM-MM2 to menin protein was determined from protein saturation experiments by monitoring the total fluorescence polarization of mixtures composed with the fluorescent probe at a fixed concentration and the protein with increasing concentrations up to full saturation. Serial dilutions of the protein were mixed with FAM-MM2 to a final volume of 200 μl in the assay buffer (PBS with 0.02% Bovine γ-Globulin and 4% DMSO. 0.01% Triton X-100 was added right before assays). Final FAM-MM2 concentration was 2 nM. Plates were incubated at room temperature for 30 minutes with gentle shaking to assure equilibrium. FP values in millipolarization units (mP) were measured using the Infinite M-1000 plate reader (Tecan U.S., Research Triangle Park, N.C.) in Microfluor 1 96-well, black, v-bottom plates (Thermo Scientific, Waltham, Mass.) at an excitation wavelength of 485 nm and an emission wavelength of 530 nm.
The IC50, see Table 3, of representative Compounds of the Disclosure were determined in a competitive binding experiment. Mixtures of 5 μl of the tested compounds in DMSO and 195 μl of preincubated protein/probe complex solution in the assay buffer were added into assay plates which were incubated at room temperature for 30 minutes with gentle shaking. Final concentration of the menin protein was 4 nM, and final probe concentration is 2 nM. Negative controls containing protein/probe complex only (equivalent to 0% inhibition), and positive controls containing only free probes (equivalent to 100% inhibition), were included in each assay plate. FP values were measured as described above. IC50 values were determined by nonlinear regression fitting of the competition curves.

MV4-11 = test: 7-day proliferation assay (WST-8), MV4-11; type: cell-based; conditions: Homo sapiens, 168 h, 7 days, read-out: IC50 in cell growth inhibition
Method: (§1) The effect of representative Compounds of the Disclosure on cell viability was determined in a 7-day proliferation assay. Cells were maintained in the appropriate culture medium with 10% FBS at 37° C. and an atmosphere of 5% CO2.
(§2) Cells were seeded in 96-well flat bottom (Corning COSTAR, Corning, N.Y., cat #3595) at a density of 2,000-3,000 cells/well in 100 μl of culture medium. Compounds were serially diluted in the appropriate medium, and 100 μl of the diluted compounds were added to the appropriate wells of the cell plate. After the addition of compounds, the cells were incubated at 37° C. in an atmosphere of 5% CO2 for 7 days. Cell viability was determined using the WST (2-(2-methoxy-4-nitrophenyl)-3-(4-nitrophenyl)-5-(2,4-disulfophenyl)-2H-tetrazolium, monosodium salt) Cell Counting-8 Kit (Dojindo Molecular Technologies, Inc., Rockville, Md.) according to the manufacturers' instructions.
(§3) WST-8 reagent was added to each well at a final concentration of 10% (v/v), and then the plates were incubated at 37° C. for 1-2 hours for color development. The absorbance was measured at 450 nm using a SPECTRAmax PLUS plate reader (Molecular Devices, Sunnyvale, Calif.). The readings were normalized to the DMSO-treated cells and the half maximal inhibitory concentration (IC50) was calculated by nonlinear regression (four parameters sigmoid fitted with variable slope, least squares fit, and no constraint) analysis using the GraphPad Prism 5 software (GraphPad Software, La Jolla, Calif.).

MOLM13 = test: 7-day proliferation assay (WST-8), MOLM13; type: cell-based; conditions: Homo sapiens, MOLM-13, 168 h, 7 days, read-out: IC50 in cell growth inhibition
Method: as §1, §2, §3

MOLM14 = test: 7-day proliferation assay (WST-8), MOLM14; type: cell-based; conditions: Homo sapiens, MOLM-14, 168 h; Table 4; MOLM14, AML, MLL/AF9; 7 days; read-out: IC50 in cell growth inhibition
Method: as §1, §2, §3

SEM cells = test: 7-day proliferation assay (WST-8), SEM; type: cell-based; conditions: MLL-AF9, 168 h; Table 4; 7 days; read-out: IC50 in cell growth inhibition
Method: as §1, §2, §3

MonoMac6 = test: 7-day proliferation assay (WST-8), MonoMac6; type: cell-based; conditions: Homo sapiens, MONO-MAC-6, 168 h; Table 4; MonoMac6, AML, MLL/AF9; 7 days; read-out: IC50 in cell growth inhibition
Method: as §1, §2, §3

RS4-11 = test: 7-day proliferation assay (WST-8), RS4-11; type: cell-based; conditions: Homo sapiens, 168 h; Table 4; RS4-11, B-lineage ALL, MLL/AF4; 7 days; read-out: IC50 in cell growth inhibition
Method: as §1, §2, §3

menin protein [2] = molecular target: T1, menin protein; test: Covalent binding to menin protein by mass spectroscopy; conditions: incubated with recombinant human menin, compared to menin apo
Method: No. 1 and Cpd. […] Recombinant human menin protein was incubated with Cpd. No. 1 or Cpd. No. 3 and compared to menin protein alone (Menin apo).

| SMILES | IC50 (menin protein [1]) [nM] | IC50 (MV4-11; Table 4, MV4-11, AML, MLL/AF4) [nM] | IC50 (MOLM13; Table 4, MOLM13, AML, MLL/AF9) [nM] | IC50 (MOLM14) [nM] | IC50 (SEM cells) [nM] | IC50 (MonoMac6) [nM] | IC50 (RS4-11) [nM] | Covalent binding with menin protein (mass spectroscopy) (menin protein [2]) | IC50 (MV4-11; Table 5, MV4-11) [nM] | IC50 (MOLM13; Table 5, MOLM13) [nM] |
| --- | --- | --- | --- | --- | --- | --- | --- | --- | --- | --- |
| C=CC(=O)N1CC(S(=O)(=O)c2ccc(N3CC(CN4CCC([C@@](C#N)(c5cccc(F)c5)[C@H]5CCC[C@@H]5OC(=O)NC)CC4)C3)cc2)C1 [Cpd. No. 1, (1S,2R)-2-((S)-(1-((1-(4-((1-acryloylazetidin-3-yl)sulfonyl)phenyl)azetidin-3-yl)methyl)piperidin-4-yl)(cyano)(3-fluorophenyl)methyl)cyclopentyl methylcarbamate] | 5 | 4.3 | 27.2 | 41 | 10.9 | 84 | 8.8 | covalently bind with menin protein |  |  |
| C=CC(=O)Nc1cccc(S(=O)(=O)c2ccc(N3CC(CN4CCC([C@@](C#N)(c5cccc(F)c5)[C@H]5CCC[C@@H]5OC(=O)NC)CC4)C3)cc2)c1 [Cpd. No. 3, (1S,2R)-2-((S)-(1-((1-(4-((3-acrylamidophenyl)sulfonyl)phenyl)azetidin-3-yl)methyl)piperidin-4-yl)(cyano)(3-fluorophenyl)methyl)cyclopentyl methylcarbamate] | 3 |  |  |  |  |  |  | covalently bind with menin protein |  |  |
| C=CC(=O)Nc1cccc(S(=O)(=O)c2ccc(N3CC(CN4CCC([C@@](C#N)(c5cccc(F)c5)[C@H]5CCC[C@@H]5NC(=O)OC)CC4)C3)cc2)c1 [Cpd. No. 5, methyl ((1S,2R)-2-((S)-(1-((1-(4-((3-acrylamidophenyl)sulfonyl)phenyl)azetidin-3-yl)methyl)piperidin-4-yl)(cyano)(3-fluorophenyl)methyl)cyclopentyl)carbamate] | 2 | 8.3 | 41.4 | 78.8 | 39.6 | 156 | 10.7 |  |  |  |
| C=CC(=O)N1CC(S(=O)(=O)c2ccc(N3CC(CN4CCC([C@@](C#N)(c5cccc(F)c5)[C@H]5CCC[C@@H]5NC(=O)OC)CC4)C3)cc2)C1 [Cpd. No. 6, methyl ((1S,2R)-2-((S)-(1-((1-(4-((1-acryloylazetidin-3-yl)sulfonyl)phenyl)azetidin-3-yl)methyl)piperidin-4-yl)(cyano)(3-fluorophenyl)methyl)cyclopentyl)carbamate] | 3 | 44.8 | 154 | 180 | 79 | 764 | 62.1 |  |  |  |
| C=CC(=O)Nc1cccc(S(=O)(=O)c2ccc(N3CC(CN4CCC([C@@](Cn5ccnc5CC)(c5cccc(F)c5)[C@H]5CCC[C@@H]5NC(=O)OC)CC4)C3)cc2)c1 [Cpd. No. 7, methyl ((1S,2R)-2-((S)-1-(1-((1-(4-((3-acrylamidophenyl)sulfonyl)phenyl)azetidin-3-yl)methyl)piperidin-4-yl)-2-(2-ethyl-1H-imidazol-1-yl)-1-(3-fluorophenyl)ethyl)cyclopentyl)carbamate] | 3 | 2.2 | 16.9 | 17.6 | 4.7 | 67.7 | 5.9 |  |  |  |
| COC(=O)N[C@H]1CCC[C@@H]1[C@](C#N)(c1cccc(F)c1)C1CCN(CC2CN(c3ccc(S(=O)(=O)C4CN(C(=O)/C=C/CN5CCCC5)C4)cc3)C2)CC1 [Cpd. No. 74, methyl ((1S,2R)-2-((S)-cyano(3-fluorophenyl)(1-((1-(4-((1-((E)-4-(pyrrolidin-1-yl)but-2-enoyl)azetidin-3-yl)sulfonyl)phenyl)azetidin-3-yl)methyl)piperidin-4-yl)methyl)cyclopentyl)carbamate] | 3 |  |  |  |  |  |  |  | 2 | 14 |
| N#C[C@@](c1cccc(F)c1)(C1CCN(CC2CN(c3ccc(S(=O)(=O)C4CC4)cc3)C2)CC1)[C@H]1CCC[C@@H]1NC(=O)CCl [Cpd. No. 76, 2-chloro-N-((1S,2R)-2-((S)-cyano(1-((1-(4-(cyclopropylsulfonyl)phenyl)azetidin-3-yl)methyl)piperidin-4-yl)(3-fluorophenyl)methyl)cyclopentyl)acetamide] | 5 |  |  |  |  |  |  |  | 117 | 313 |
| C=CC(=O)N1CCC(S(=O)(=O)c2ccc(N3CC(CN4CCC([C@@](C#N)(c5cccc(F)c5)[C@H]5CCC[C@@H]5NC(=O)OC)CC4)C3)cc2)C1 (stereo partly drawn) [Cpd. No. 77, methyl ((1S,2R)-2-((1S)-(1-((1-(4-((1-acryloylpyrrolidin-3-yl)sulfonyl)phenyl)azetidin-3-yl)methyl)piperidin-4-yl)(cyano)(3-fluorophenyl)methyl)cyclopentyl)carbamate] | 11 |  |  |  |  |  |  |  | 91 | 1220 |
| C=CC(=O)N1CCCC(S(=O)(=O)c2ccc(N3CC(CN4CCC([C@@](C#N)(c5cccc(F)c5)[C@H]5CCC[C@@H]5NC(=O)OC)CC4)C3)cc2)C1 (stereo partly drawn) [Cpd. No. 78, methyl ((1S,2R)-2-((1S)-(1-((1-(4-((1-acryloylpiperidin-3-yl)sulfonyl)phenyl)azetidin-3-yl)methyl)piperidin-4-yl)(cyano)(3-fluorophenyl)methyl)cyclopentyl)carbamate] | 10 |  |  |  |  |  |  |  | 65 | 291 |
